PMC5428777, “Molecular Characteristics and Serodiagnostic Potential of Dihydrofolate Reductase from Echinococcus granulosus” (Scientific Reports, 2017)
Where two headings read alike, the source gives them in different places.

Key:
[1] = test system: E. granulosus protoscoleces (PSCs); assay: microbe, parasite or virus in culture; type: cell-based, Echinococcus granulosus; conditions: for effect on PSCs (protoscolex viability): all three concentrations tested
Experimental: Cysts of E. granulosus were obtained from a slaughterhouse in Qinghai Province, China. The PSCs were separated in sterile conditions and washed three times in phosphate-buffered saline (PBS). Rinsed PSCs were diluted to a concentration of 1,500 mL^−1 and maintained as previously described, [47]. Briefly, PSCs were cultured in RPMI 1640 medium (Hyclone) with 10% fetal bovine serum (Hyclone), 10% hydatid fluid, 100 U.mL^−1 penicillin G and 100 μg.mL^−1 streptomycin (Sigma, USA). Adult worms were collected from the small intestine of a 2-month-old dog 35 days post-infection with 20,000 PSCs. A 5-month-old dog and two 9-week-old female New Zealand white rabbits were obtained from the Laboratory Animal Center of Sichuan Agricultural University. All animals were provided with food pellets and sterilised water ad libitum.
[…]. PSCs incubated with only assay buffer (DHFR assay kit; Sigma) or DMSO were used as negative controls. The vitality of protoscoleces was assessed using a Trypan Blue exclusion test[50], [51]. The daily percentages of PSCs vitality were calculated on six microscopic fields covering approximately 10–20 PSCs. The effect of per drug concentration was monitored in triplicate and in two separate trials.

rEg-DHFR [2] = molecular target: T1, rEg-DHFR (Echinococcus granulosus, UniProt U6JJS2); assay: Inhibition of rEg-DHFR enzyme activity by antifolates (DHFR assay kit, absorbance 340 nm); type: biochemical
T1 sequence (U6JJS2 1-191): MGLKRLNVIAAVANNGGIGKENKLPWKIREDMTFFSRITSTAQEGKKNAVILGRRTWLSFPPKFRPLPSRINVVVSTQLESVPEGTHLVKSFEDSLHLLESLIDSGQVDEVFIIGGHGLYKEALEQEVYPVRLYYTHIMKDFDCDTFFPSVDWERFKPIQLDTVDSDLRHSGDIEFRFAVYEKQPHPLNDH
Experimental: The temperature was controlled at 22 °C.
The IC50 was calculated using GraphPad Prism software by nonlinear curve-fitting.

[3] = test system: E. granulosus protoscoleces (PSCs); parameters: method as in PMID 11133110; conditions: positive control; ref [30]; cited from earlier work
rEg-DHFR [4] = molecular target: T1, rEg-DHFR; assay: Enzyme kinetics of rEg-DHFR towards substrate DHF (Michaelis-Menten fit); type: biochemical; conditions: 0-120 μM DHF, 60 μM NADPH, 22 °C
Experimental: The enzymatic characteristics of rEg-DHFR and human DHFR enzyme (DHFR assay kit; Sigma) were analysed using a DHFR assay kit (Sigma) following the manufacturer’s instructions[41]. Briefly, a range of purified rEg-DHFR concentrations was added to the assay buffer and mixed well and the optimal concentration was determined. Reaction progress was measured based on the decrease in absorbance at 340 nm. Data was recorded at 25 s intervals for 2.5 min. The temperature was controlled at 22 °C. […] Kinetic parameters (Vmax and Km) were calculated using GraphPad Prism® software (San Diego, CA, USA; http://www.graphpad.com) based on a Michaelis-Menten curve fit.

[5] = substrate: Nc1nc2c(c(=O)[nH]1)N=C(CNc1ccc(C(=O)N[C@@H](CCC(=O)O)C(=O)O)cc1)CN2; assay: purified protein, by the assay type; conditions: other: 0-120 μM DHF, 60 μM NADPH, 22 °C
[6] = 50 μM dihydrofolic acid, 60 μM NADPH, mean ± SD, read-out: IC50 for rEg-DHFR

CN(Cc1cnc2nc(N)nc(N)c2n1)c1ccc(C(=O)N[C@@H](CCC(=O)O)C(=O)O)cc1 [Methotrexate, methotrexate]
effect on PSCs (protoscolex viability) ([1]; after 7 days of incubation): slight effect

CCc1nc(N)nc(N)c1-c1ccc(Cl)cc1 [Pyrimethamine, pyrimethamine]
percentage vitality of PSCs ([1]; 800 μM, after 7 days of incubation, control 82.65 ± 6.11%): 20.67 ± 2.49%
IC50 (rEg-DHFR [2]; [6]): 860 ± 93.5 nM

COc1cc(Cc2cnc(N)nc2N)cc(OC)c1OC [Trimethoprim, trimethoprim]
viability at 3000 µM ([1]; Echinococcus granulosus, 168 h, read-out: PSCs remaining viable in culture): 38.7 ± 6.18%
IC50 (rEg-DHFR [2]; [6]): 30800 ± 2090 nM

Nc1nc(N)c2nc(CNc3ccc(C(=O)N[C@@H](CCC(=O)O)C(=O)O)cc3)cnc2n1 [Aminopterin, aminopterin]
effect on PSCs (protoscolex viability) ([1]; after 7 days of incubation): slight effect
IC50 (rEg-DHFR [2]): 63.7 ± 6.76 nM

O=C(C1CCCCC1)N1CC(=O)N2CCc3ccccc3C2C1 (stereo not drawn) [Praziquantel]
protoscolicidal activity [3]: exhibit protoscolicidal activity

Nc1nc2c(c(=O)[nH]1)N=C(CNc1ccc(C(=O)N[C@@H](CCC(=O)O)C(=O)O)cc1)CN2 [DHF, 7,8-dihydrofolate]
Vmax of rEg-DHFR for substrate DHF (rEg-DHFR [4]): 2.384 ± 0.01874 µmol/min/mg

B1: human DHFR (Homo sapiens) (protein)
chain: MVGSLNCIVAVSQNMGIGKNGDLPWPPLRNEFRYFQRMTTTSSVEGKQNLVIMGKKTWFSIPEKNRPLKGRINLVLSRELKEPPQGAHFLSRSLDDALKLTEQPELANKVDMVWIVGGSSVYKEAMNHPGHLKLFVTRIMQDFESDTFFPEIDLEKYKLLPEYPGVLSDVQEEKGIKYKFEVYEKND
Km [5]: 14.61 ± 0.6590 µM
Vmax [5]: 3.370 ± 0.02327 µmol/min/mg

B2: rEg-DHFR (Echinococcus granulosus) (protein)
chain: T1 sequence (U6JJS2 1-191)
Km [5]: 18.74 ± 0.5651 µM
